Reference: patent publication US10662146B2, “Prodrugs of fencamfamine” (Praxis Bioresearch, LLC, priority 2015, dated 2020)
Several values for one entry are separate records, joined by “and”; a condition that tells them apart may be missing. Equal entries are not always repeated. Entries after “also recorded” stand apart in the source; their conditions may differ. Where two headings read alike, the source gives them in different places.

Tests used:
[1] = tested on: spontaneous locomotor activity; assay: Spontaneous locomotor activity (sLMA), oral administration; format: in vivo, Male Sprague-Dawley (SD) rats; conditions: p.o. 1, 5 or 10 mg/kg equivalent of PRX-002 (−), 60 min before 60 min test, vs vehicle
Experimental: Male Sprague-Dawley (SD) were housed in groups of three under controlled conditions. Water and food were available ad libitum. The rats were kept for 1 week under these conditions before behavioral test. On the day of test rats were allowed to acclimate to the testing room for at least 30 min before test compound administration. Rats were randomly assigned into 4 groups.
Vehicle was 0.1% Tween-80 and 0.5% carboxymethylcellulose to which respective amount of PRX-P4-003 was added to obtain a clear solution.
Animals were p.o. administered with Veh or 3 doses of PRX-P4-003 [1, 5 or 10 mg/kg equivalent dose of active compound PRX-002 (−)] at 60 min before spontaneous locomotor activity (sLMA) test.
The rat was placed at the center of test chamber for the 60 min sLMA video recording. 60 min of spontaneous locomotion activity was video recorded and off line analyzed with Animal Behavior Video Tracking Analysis System (Ji Liang Software Technology Co., Ltd., Shanghai, China). Total traveling distance (cm) and duration (sec) of locomotor activity of every 15 min is presented FIGS. 11A and 11B.

[2] = tested on: spontaneous locomotor activity; assay: Spontaneous locomotor activity (sLMA), intravenous administration; format: in vivo, Male SD rats; conditions: i.v. 25.8 mg/kg, equivalent to 10 mg/kg of PRX-002 (−), 90 min recording, vs vehicle
Experimental: Male SD rats were intravenously administered with PRX-002(−) (2 mg/kg) and prodrug PRX-P4-003 [(25.8 mg/kg, equivalent to 10 mg/kg of PRX-002 (−)], and vehicle just before sLMA test.
Vehicle was: 10% PEG 400 (v/v)+30% (v/v) of (50% w/v) Hydroxypropyl-ß-cyclodextrin in water+60% (v/v) sterile water for injection (SWFI): 1 ml/kg volume.
PRX-P4-003 solution was: 25.8 mg/ml PRX-P4-003 (25.8 mg/kg: equivalent to 10 mg/ml active drug, i.v. @volume of 1 ml/kg). 42.3 mg PRX-P4-003 was added to vehicle 1.639 ml, vortexed for 30 min under room temperature to get a uniform suspension solution, suspension solution was continuously stirred during dosage.
The PRX-P4-002(−) solution was: 2 mg/ml PRX-P4-002(−) (2 mg/kg, i.v.@volume of 1 ml/kg). 4.5 mg PRX-002(−) was added to 2.25 ml Vehicle, vortexed for 30 min under room temperature to get a clear solution, the solution was continuously stirred during dosage.
Rat was placed at the center of test chamber for the 90 min sLMA video recording. (n=3/group).

[3] = Single dose oral PK study in male Sprague Dawley rats (plasma by LC-MS/MS); format: in vivo; conditions: for Plasma concentration of PRX-P4-003 / AUC% extrap of PRX-P4-003 / Tmax: mean; for Tmax: male, rat, in vivo
Outline: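 Fasted adult male Sprague Dawley rats (8-10 weeks) got a single oral dose of prodrug, as Tween 80/0.5% CMC suspension, equivalent to 5 mg/kg PRX-002 (up to 10 or 15 mg/kg in some studies). Retro-orbital K2EDTA blood was sampled over 24 h. Plasma fencamfamine was measured by LC-MS/MS.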

CCCCCCCCCCCCCCCCCC(=O)OCOC(=O)N(CC)C1C2CCC(C2)C1c1ccccc1 (single isomer, unassigned) [PRX-P4-003, N-(Octadecanoyloxymethoxycarbonyl)-(−)-N-ethyl-3-phenylbicyclo[2.2.1]heptan-2-amine]
Spontaneous locomotor activity (sLMA): total traveling distance and duration [1]: dose dependent increase in sLMA; also recorded: both traveling distance and locomotion duration increased
Spontaneous locomotor activity (sLMA): total traveling distance and duration [2]: no increase in sLMA; also recorded: practically no change
Prodrug form present in the plasma ([3]; PRX-P4-003 administered orally (FIG. 4)): almost none
Plasma concentration of PRX-P4-003 ([3]; PRX-P4-003 oral 5 mg/kg b.w., 0.00 h): 0.00
Plasma concentration of PRX-P4-003 ([3]; PRX-P4-003 oral 5 mg/kg b.w., 0.08 h): 0.00
Plasma concentration of PRX-P4-003 ([3]; PRX-P4-003 oral 5 mg/kg b.w., 0.25 h): 0.00
Plasma concentration of PRX-P4-003 ([3]; PRX-P4-003 oral 5 mg/kg b.w., 0.50 h): 0.00
Plasma concentration of PRX-P4-003 ([3]; PRX-P4-003 oral 5 mg/kg b.w., 1.00 h): 0.00
Plasma concentration of PRX-P4-003 ([3]; PRX-P4-003 oral 5 mg/kg b.w., 2.00 h): 0.00
Plasma concentration of PRX-P4-003 ([3]; PRX-P4-003 oral 5 mg/kg b.w., 4.00 h): 0.00
Plasma concentration of PRX-P4-003 ([3]; PRX-P4-003 oral 5 mg/kg b.w., 6.00 h): 0.00
Plasma concentration of PRX-P4-003 ([3]; PRX-P4-003 oral 5 mg/kg b.w., 24.00 h): 0.00
AUC% extrap of PRX-P4-003 ([3]; PRX-P4-003 oral 5 mg/kg, 5 mg/kg): 0.0 ± 0.0% and 0.0%
Plasma concentration of PRX-P4-003 ([3]; PRX-P4-003 oral 10 mg/kg b.w., 0.00 h): 0.00
Plasma concentration of PRX-P4-003 ([3]; PRX-P4-003 oral 10 mg/kg b.w., 0.08 h): 0.00
Plasma concentration of PRX-P4-003 ([3]; PRX-P4-003 oral 10 mg/kg b.w., 0.25 h): 0.00
Plasma concentration of PRX-P4-003 ([3]; PRX-P4-003 oral 10 mg/kg b.w., 0.50 h): 0.00
Plasma concentration of PRX-P4-003 ([3]; PRX-P4-003 oral 10 mg/kg b.w., 1.00 h): 0.00
Plasma concentration of PRX-P4-003 ([3]; PRX-P4-003 oral 10 mg/kg b.w., 2.00 h): 0.00
Plasma concentration of PRX-P4-003 ([3]; PRX-P4-003 oral 10 mg/kg b.w., 4.00 h): 0.00
Plasma concentration of PRX-P4-003 ([3]; PRX-P4-003 oral 10 mg/kg b.w., 6.00 h): 0.00
Plasma concentration of PRX-P4-003 ([3]; PRX-P4-003 oral 10 mg/kg b.w., 24.00 h): 0.00
AUC% extrap of PRX-P4-003 ([3]; PRX-P4-003 oral 10 mg/kg): 0.0%
Active PRX-002 (−) Isomer formed in plasma ([3]; PRX-P4-003 oral administration (FIG. 2, FIG. 4)): desired plasma concentration
Tmax ([3]; Sprague Dawley, PRX-P4-003 oral 10 mg/kg, read-out: Tmax of PRX-P4-003): 0 h
Tmax ([3]; Sprague Dawley, oral 5 mg/kg [equivalent to PRX-002 (−)], analyte: prodrug in plasma, read-out: Oral PK Parameters Tmax, Prodrug): 0 h
Tmax ([3]; Sprague-Dawley, PRX-P4-003 oral 5 mg/kg, read-out: Tmax of PRX-P4-003): 0 h
